Key:
[1] = biological target: Aurora kinase B (Homo sapiens, UniProt Q96GD4); test: Inhibition of aurora B (unknown origin)
[2] = biological target: Proto-oncogene tyrosine-protein kinase receptor Ret (Homo sapiens) (UniProt P07949); test: Inhibition of human RET assessed as residual activity at 1 uM relative to control
[3] = biological target: T1, Protein kinase C epsilon type (Homo sapiens) (UniProt Q02156); test: Inhibition of human PKC-epsilon assessed as residual activity at 1 uM relative to control
T1 sequence (whole entry): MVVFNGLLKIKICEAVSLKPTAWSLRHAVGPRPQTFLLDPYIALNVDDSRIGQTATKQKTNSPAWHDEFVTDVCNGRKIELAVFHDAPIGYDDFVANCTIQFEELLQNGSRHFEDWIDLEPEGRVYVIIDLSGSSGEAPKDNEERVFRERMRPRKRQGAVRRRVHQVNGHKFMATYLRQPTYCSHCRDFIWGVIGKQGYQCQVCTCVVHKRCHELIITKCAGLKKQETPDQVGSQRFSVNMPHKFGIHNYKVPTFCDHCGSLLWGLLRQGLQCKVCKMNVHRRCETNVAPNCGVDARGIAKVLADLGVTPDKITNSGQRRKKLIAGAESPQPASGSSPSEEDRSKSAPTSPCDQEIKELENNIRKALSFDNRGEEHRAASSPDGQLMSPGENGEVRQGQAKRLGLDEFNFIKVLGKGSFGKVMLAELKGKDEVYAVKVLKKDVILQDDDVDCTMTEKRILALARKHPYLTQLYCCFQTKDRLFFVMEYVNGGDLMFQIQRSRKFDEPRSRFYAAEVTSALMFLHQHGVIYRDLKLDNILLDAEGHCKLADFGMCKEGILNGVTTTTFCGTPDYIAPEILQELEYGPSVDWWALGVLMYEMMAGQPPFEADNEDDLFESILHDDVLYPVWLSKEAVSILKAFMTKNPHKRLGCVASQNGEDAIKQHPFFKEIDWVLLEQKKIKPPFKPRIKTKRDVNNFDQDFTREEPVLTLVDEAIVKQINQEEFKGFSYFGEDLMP

[4] = biological target: Macrophage-stimulating protein receptor (Homo sapiens) (UniProt Q04912); test: Inhibition of human RON assessed as residual activity at 1 uM relative to control
[5] = biological target: Fibroblast growth factor receptor 1 (Homo sapiens) (UniProt P11362); test: Inhibition of human FGFR1 assessed as residual activity at 1 uM relative to control
[6] = biological target: Vascular endothelial growth factor receptor 1 (Homo sapiens) (UniProt P17948); test: Inhibition of human FLT1 assessed as residual activity at 1 uM relative to control
[7] = biological target: Glycogen synthase kinase-3 alpha (Homo sapiens) (UniProt P49840); test: Inhibition of human GSK3alpha assessed as residual activity at 1 uM relative to control
[8] = biological target: Tyrosine-protein kinase Fyn (Homo sapiens) (UniProt P06241); test: Inhibition of human FYN assessed as residual activity at 1 uM relative to control
[9] = organism: Homo sapiens; test: Inhibition of human PKA assessed as residual activity at 1 uM relative to control
[10] = biological target: T2, Interleukin-1 receptor-associated kinase 4 (Homo sapiens) (UniProt Q9NWZ3); test: Inhibition of human IRAK4 assessed as residual activity at 1 uM relative to control
T2 sequence (whole entry): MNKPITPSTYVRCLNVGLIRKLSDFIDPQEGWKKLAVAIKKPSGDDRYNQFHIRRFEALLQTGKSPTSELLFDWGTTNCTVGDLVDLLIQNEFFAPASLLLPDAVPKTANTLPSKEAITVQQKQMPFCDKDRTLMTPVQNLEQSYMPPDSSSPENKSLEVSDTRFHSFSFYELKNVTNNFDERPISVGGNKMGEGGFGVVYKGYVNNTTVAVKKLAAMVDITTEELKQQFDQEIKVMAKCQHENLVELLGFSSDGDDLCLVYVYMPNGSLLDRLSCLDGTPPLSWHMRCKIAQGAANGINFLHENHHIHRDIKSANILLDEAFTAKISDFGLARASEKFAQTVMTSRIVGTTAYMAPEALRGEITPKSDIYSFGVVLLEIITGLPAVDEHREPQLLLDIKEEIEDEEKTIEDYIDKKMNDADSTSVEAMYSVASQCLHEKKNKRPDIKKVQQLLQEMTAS

[11] = biological target: Proto-oncogene tyrosine-protein kinase Src (Homo sapiens) (UniProt P12931); test: Inhibition of human cSRC assessed as residual activity at 1 uM relative to control
[12] = biological target: 5'-AMP-activated protein kinase catalytic subunit alpha-2 (Homo sapiens) (UniProt P54646); test: Inhibition of human AMPKalpha2 assessed as residual activity at 1 uM relative to control
[13] = biological target: RAC-beta serine/threonine-protein kinase (Homo sapiens) (UniProt P31751); test: Inhibition of human PKBbeta assessed as residual activity at 1 uM relative to control
[14] = biological target: Dual specificity mitogen-activated protein kinase kinase 1 (Homo sapiens) (UniProt Q02750); test: Inhibition of human MEK1 assessed as residual activity at 1 uM relative to control
[15] = biological target: T3, Dual specificity mitogen-activated protein kinase kinase 7 (Homo sapiens) (UniProt O14733); test: Inhibition of human MKK7beta assessed as residual activity at 1 uM relative to control
T3 sequence (whole entry): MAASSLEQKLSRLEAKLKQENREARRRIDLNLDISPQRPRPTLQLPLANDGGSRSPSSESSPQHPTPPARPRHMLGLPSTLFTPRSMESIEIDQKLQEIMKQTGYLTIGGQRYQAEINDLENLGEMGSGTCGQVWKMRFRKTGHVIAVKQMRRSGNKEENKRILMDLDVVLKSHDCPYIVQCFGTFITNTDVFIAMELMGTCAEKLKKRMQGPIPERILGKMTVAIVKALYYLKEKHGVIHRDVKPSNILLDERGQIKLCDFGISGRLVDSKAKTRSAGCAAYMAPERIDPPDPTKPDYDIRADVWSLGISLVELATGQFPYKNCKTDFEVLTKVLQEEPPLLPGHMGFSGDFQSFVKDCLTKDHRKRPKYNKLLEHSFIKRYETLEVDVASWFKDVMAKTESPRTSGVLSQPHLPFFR

[16] = biological target: Serine/threonine-protein kinase PAK 2 (Homo sapiens) (UniProt Q13177); test: Inhibition of human PAK2 assessed as residual activity at 1 uM relative to control
[17] = biological target: Epidermal growth factor receptor (Homo sapiens) (UniProt P00533); test: Inhibition of human EGFR assessed as residual activity at 1 uM relative to control
[18] = biological target: Receptor tyrosine-protein kinase erbB-4 (Homo sapiens) (UniProt Q15303); test: Inhibition of human ERBB4 assessed as residual activity at 1 uM relative to control
[19] = biological target: Proto-oncogene tyrosine-protein kinase Src (Homo sapiens) (UniProt P12931); test: Inhibition of human SRC (1 to 530) assessed as residual activity at 1 uM relative to control
[20] = biological target: Misshapen-like kinase 1 (Homo sapiens) (UniProt Q8N4C8); test: Inhibition of human MINK assessed as residual activity at 1 uM relative to control
[21] = biological target: Mitogen-activated protein kinase 14 (Homo sapiens) (UniProt Q16539); test: Inhibition of human SAPK2alpha assessed as residual activity at 1 uM relative to control
Chain of Mitogen-activated protein kinase 14 (Homo sapiens) (Q16539 whole entry): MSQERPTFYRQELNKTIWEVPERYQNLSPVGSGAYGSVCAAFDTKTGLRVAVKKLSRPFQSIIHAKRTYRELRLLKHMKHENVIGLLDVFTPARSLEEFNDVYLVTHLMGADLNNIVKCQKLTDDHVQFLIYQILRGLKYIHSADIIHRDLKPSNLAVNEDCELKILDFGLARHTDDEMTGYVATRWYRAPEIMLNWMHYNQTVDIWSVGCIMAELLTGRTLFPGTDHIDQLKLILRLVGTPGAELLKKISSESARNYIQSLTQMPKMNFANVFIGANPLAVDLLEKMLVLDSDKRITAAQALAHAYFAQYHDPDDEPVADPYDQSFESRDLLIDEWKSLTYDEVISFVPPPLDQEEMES

Chain of Vascular endothelial growth factor receptor 1 (Homo sapiens) (P17948 whole entry): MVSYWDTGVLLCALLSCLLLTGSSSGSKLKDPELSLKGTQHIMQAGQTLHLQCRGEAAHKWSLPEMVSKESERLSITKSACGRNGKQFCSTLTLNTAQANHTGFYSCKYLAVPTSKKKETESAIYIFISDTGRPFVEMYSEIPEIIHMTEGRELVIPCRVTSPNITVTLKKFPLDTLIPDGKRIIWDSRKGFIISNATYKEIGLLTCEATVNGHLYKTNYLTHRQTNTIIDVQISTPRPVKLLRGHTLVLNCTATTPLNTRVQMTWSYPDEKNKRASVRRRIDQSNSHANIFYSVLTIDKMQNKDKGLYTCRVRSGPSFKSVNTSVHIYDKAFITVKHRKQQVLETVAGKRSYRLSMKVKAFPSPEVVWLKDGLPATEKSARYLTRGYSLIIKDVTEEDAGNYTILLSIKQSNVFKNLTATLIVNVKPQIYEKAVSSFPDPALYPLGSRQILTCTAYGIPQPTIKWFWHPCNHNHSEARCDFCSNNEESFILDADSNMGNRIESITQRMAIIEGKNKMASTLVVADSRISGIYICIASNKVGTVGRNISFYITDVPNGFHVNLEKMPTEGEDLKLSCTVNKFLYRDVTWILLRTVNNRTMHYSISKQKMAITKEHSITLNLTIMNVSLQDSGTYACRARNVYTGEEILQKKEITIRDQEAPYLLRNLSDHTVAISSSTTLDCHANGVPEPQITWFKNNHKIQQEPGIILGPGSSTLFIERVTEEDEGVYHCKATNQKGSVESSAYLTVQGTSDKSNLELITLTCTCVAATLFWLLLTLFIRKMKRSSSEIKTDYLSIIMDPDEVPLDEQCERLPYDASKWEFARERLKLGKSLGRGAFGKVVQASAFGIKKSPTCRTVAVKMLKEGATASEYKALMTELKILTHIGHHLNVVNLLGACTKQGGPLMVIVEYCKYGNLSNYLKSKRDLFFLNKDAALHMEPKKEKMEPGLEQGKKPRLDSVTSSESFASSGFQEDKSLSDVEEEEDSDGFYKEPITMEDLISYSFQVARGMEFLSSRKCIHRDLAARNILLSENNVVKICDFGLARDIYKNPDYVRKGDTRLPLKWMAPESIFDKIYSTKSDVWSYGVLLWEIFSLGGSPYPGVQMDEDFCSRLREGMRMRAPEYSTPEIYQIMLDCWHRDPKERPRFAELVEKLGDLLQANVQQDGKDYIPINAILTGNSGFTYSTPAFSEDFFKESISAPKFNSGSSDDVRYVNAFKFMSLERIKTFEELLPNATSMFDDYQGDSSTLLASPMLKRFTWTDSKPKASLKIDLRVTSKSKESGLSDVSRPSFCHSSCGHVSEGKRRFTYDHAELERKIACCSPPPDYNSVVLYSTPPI
Chain of Proto-oncogene tyrosine-protein kinase receptor Ret (Homo sapiens) (P07949 whole entry): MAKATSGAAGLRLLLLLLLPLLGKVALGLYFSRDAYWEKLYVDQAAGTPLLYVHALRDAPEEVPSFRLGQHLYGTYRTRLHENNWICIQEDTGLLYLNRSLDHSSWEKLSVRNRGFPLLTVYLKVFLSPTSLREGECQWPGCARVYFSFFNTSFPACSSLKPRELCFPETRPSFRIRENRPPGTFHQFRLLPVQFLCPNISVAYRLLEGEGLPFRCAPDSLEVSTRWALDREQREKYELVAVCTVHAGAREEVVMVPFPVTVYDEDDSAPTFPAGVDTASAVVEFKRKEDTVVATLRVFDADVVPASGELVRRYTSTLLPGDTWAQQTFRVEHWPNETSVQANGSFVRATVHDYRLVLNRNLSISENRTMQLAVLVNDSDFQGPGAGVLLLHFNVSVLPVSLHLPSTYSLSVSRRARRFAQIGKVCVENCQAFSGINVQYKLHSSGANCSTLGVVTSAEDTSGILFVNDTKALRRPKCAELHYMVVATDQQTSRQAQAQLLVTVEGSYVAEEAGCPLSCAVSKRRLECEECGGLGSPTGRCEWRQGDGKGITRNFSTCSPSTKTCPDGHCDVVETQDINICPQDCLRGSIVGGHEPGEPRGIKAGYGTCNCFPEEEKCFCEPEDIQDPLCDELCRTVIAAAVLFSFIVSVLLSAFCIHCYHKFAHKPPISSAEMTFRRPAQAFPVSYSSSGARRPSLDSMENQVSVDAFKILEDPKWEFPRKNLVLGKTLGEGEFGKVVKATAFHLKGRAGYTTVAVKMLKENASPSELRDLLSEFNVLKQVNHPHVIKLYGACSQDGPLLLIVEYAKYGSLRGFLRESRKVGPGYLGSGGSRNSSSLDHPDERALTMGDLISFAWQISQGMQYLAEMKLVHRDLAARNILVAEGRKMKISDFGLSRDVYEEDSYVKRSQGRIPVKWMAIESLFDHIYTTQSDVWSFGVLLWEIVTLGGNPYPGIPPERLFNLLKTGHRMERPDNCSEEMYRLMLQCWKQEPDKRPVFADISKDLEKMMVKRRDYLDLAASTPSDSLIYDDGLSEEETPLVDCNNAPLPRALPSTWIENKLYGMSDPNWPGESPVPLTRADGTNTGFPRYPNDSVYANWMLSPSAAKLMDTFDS
Chain of Glycogen synthase kinase-3 alpha (Homo sapiens) (P49840 2-483 limits assumed): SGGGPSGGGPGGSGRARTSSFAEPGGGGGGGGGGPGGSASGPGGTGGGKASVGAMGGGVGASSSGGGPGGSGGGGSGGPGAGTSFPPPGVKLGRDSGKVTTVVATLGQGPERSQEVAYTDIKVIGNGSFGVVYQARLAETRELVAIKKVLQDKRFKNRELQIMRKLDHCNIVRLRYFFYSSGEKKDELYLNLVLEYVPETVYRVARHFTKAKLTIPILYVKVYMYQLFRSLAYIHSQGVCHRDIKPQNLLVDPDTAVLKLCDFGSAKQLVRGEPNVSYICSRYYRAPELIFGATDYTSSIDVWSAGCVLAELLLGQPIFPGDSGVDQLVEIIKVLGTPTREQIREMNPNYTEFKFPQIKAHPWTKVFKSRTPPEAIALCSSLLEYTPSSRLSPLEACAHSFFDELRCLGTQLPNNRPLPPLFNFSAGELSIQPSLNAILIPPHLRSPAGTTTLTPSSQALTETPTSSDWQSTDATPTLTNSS
Chain of Tyrosine-protein kinase Fyn (Homo sapiens) (P06241 2-537 limits assumed): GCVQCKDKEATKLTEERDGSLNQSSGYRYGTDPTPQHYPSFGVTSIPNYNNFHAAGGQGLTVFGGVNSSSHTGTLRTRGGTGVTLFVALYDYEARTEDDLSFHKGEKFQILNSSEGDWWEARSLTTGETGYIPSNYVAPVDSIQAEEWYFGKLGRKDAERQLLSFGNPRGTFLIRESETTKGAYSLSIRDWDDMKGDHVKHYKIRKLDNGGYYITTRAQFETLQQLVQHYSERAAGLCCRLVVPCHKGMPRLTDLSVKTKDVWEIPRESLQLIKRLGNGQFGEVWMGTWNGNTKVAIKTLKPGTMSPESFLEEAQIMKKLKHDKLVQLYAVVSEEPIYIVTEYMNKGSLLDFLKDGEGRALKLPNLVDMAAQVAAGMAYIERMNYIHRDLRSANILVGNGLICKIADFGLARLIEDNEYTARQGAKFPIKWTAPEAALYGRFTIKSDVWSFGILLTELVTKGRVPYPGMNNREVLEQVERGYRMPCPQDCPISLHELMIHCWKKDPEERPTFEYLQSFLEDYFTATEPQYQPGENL
Chain of Epidermal growth factor receptor (Homo sapiens) (P00533 whole entry): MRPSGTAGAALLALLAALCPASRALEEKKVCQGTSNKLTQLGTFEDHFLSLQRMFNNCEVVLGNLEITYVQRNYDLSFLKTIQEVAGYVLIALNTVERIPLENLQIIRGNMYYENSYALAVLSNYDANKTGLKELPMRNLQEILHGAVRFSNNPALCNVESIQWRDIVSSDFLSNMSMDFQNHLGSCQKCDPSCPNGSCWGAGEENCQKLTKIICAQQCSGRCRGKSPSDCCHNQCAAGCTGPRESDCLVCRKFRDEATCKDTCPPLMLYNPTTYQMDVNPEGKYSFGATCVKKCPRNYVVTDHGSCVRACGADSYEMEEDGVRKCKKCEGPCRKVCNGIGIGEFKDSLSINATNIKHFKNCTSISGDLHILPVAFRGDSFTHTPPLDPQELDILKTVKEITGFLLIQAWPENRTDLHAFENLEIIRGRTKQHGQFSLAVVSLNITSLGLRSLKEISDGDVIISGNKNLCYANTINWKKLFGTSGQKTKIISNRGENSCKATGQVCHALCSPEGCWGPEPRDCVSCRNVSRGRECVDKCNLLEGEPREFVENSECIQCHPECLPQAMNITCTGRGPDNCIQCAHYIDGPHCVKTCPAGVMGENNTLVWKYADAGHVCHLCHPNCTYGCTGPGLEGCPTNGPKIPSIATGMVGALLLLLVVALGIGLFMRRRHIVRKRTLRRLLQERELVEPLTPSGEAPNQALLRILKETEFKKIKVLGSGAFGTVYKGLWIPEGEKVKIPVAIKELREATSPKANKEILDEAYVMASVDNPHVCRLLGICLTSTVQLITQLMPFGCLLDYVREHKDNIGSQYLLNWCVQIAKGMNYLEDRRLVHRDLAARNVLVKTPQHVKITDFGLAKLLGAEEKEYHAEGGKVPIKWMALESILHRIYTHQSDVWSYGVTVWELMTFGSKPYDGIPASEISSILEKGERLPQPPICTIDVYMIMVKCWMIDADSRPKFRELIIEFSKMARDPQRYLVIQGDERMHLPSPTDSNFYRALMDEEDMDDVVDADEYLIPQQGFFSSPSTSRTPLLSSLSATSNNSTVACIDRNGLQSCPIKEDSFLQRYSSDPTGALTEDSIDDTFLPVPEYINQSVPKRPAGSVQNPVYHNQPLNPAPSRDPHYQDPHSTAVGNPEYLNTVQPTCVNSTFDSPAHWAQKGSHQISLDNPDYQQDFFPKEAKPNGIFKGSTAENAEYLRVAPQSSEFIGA

IC50 [1] [µM] | Activity [2] [%] | Activity [3] [%] | Activity [4] [%] | Activity [5] [%] | Activity [6] [%] | Activity [7] [%] | Activity [8] [%] | Activity [9] [%] | Activity [10] [%] | Activity [11] [%] | Activity [12] [%] | Activity [13] [%] | Activity [14] [%] | Activity [15] [%] | Activity [16] [%] | Activity [17] [%] | Activity [18] [%] | Activity [19] [%] | Activity [20] [%] | SMILES | further results
18.8 | 7 | 85 | 132 | 91 | 22 | 102 | 33 | 97 | 81 | 47 | 42 | 93 | 90 | 92 | 94 | 89 | 93 | 23 | 86 | COc1ccc(-c2nc3cc(-c4csc(C(=O)NCCC(C)C)c4)cnc3[nH]2)cc1 | Activity [21]: 111%
1.44 | 10 | 90 | 122 | 94 | 24 | 95 | 67 | 82 | 81 | 85 | 46 | 90 | 89 | 88 | 92 | 97 | 91 | 47 | 82 | COc1ccc(-c2nc3cc(-c4csc(C(=O)NCC(C)(C)C)c4)cnc3[nH]2)cc1 | Activity [21]: 93%
5.92 | 6 | 96 | 128 | 70 | 10 | 92 | 34 | 89 | 75 | 50 | 28 | 98 | 86 | 94 | 90 | 102 | 98 | 25 | 99 | COc1ccc(-c2nc3cc(-c4csc(C(=O)NCC(C)C)c4)cnc3[nH]2)cc1 | Activity [21]: 107%
